Experimental data as given in US7803801B2, “Aminopyridine compounds having Syk inhibitory activity” (Japan Tobacco, Inc., priority 2005, dated 2010).
Structures can show the parent of a compound that is named as a salt.

target: GST-Syk Full Protein (human) (Homo sapiens, UniProt P43405); experiment: Syk kinase inhibition test (HTRF method); assay type: biochemical; conditions: HTRF, 100 μM ATP, 30 min room temperature, average; read-out: sykHTRF ave IC50
Description: Syk Kinase Inhibition Test (HTRF Method)
After the compounds were serially diluted with dimethylsulfoxide (DMSO), 10 μL of those 10-fold diluted with kinase buffer (20 mM HEPES pH 7.0, 10 mM MgCl2, 50 mM NaCl, 1 mM 2-ME, 0.05% BSA) was added to opti-plate HTRF-96 (Packard) (final DMSO concentration: 2%). 20 μL of a substrate solution (kinase buffer as mentioned above containing Syk Specific-Peptide Substrate Biot-EDPDYEWPSA-NH2 (Peptide Laboratory) 625 nM, 250 μM ATP (SIGMA) was added (final substrate concentration 250 nM, 100 μM ATP), and further 20 μL of an enzyme solution (kinase buffer as mentioned above containing GST-Syk Full Protein (human) 16 nM) (final concentration 6.4 nM) was added and the mixture was immediately stirred with a plate shaker to start enzyme reaction. After reacted at room temperature (20 to 25° C.) for 30 minutes, the enzyme reaction was terminated by adding 100 μL/well of a buffer for terminating and detecting the reaction (30 mM HEPES pH 7.0, 150 mM KF, 0.15% BSA, 0.075% Tween-20, 75 mM EDTA) containing HTRF reagent (5 μg/ml XL665-Streptavidin (CIS bio), 170 ng/ml Eu(K)-anti-PhosphoTyrosin, PT-66 (CIS bio)) (final concentration 20 mM HEPES pH 7.0, 100 mM KF, 0.1% BSA, 0.05% Tween-20, 50 mM EDTA). After allowed to stand still at room temperature for 1 hour, inhibitory effect of a compound against Syk kinase enzymatic activity was evaluated by measuring 665/620 fluorescence ratio to excitation light at 337 nm by ARVO (Wallac).

| IC50 [nM] | Compound |
| --- | --- |
| > 1000 | COC(=O)c1ccc(CCc2ncc(-c3cccc(Nc4cc(C)ccn4)n3)s2)cc1 [Compound A-149] |
| 100 to 1000 | Cc1ccnc(Nc2cccc(-c3cnc([C@@H](N)CCCCN)s3)n2)c1 [Compound A-63] |
| 100 to 1000 | Cc1ccnc(Nc2cccc(-c3cnc(CCc4cccc(C(=O)N5CCC(O)CC5)c4)s3)n2)c1 [Compound A-281] |

same assay, conditions: Tables 1-x, compounds A; read-out: sykHTRF ave IC50

| IC50 [nM] | Compound |
| --- | --- |
| < 100 | Cc1ccnc(Nc2cccc(-c3cnc(N4CCC(CCO)CC4)s3)n2)c1 [Compound A-677, 2-(1-{5-[6-(4-methylpyridin-2-ylamino)pyridin-2-yl]thiazol-2-yl}piperidin-4-yl)ethanol] |
| 100 to 1000 | COC(=O)N(CCC(=O)O)Cc1ncc(-c2cccc(Nc3cc(C)ccn3)n2)s1 [Compound A-584] |
| < 100 | Cc1ccnc(Nc2cccc(-c3cnc(N4CCC(CC(=O)O)CC4)s3)n2)c1 [Compound A-653, (1-{5-[6-(4-methylpyridin-2-ylamino)pyridin-2-yl]thiazol-2-yl}piperidin-4-yl)acetic acid] |
| 100 to 1000 | Cc1ccnc(Nc2cccc(-c3cnc(N(C)C4CCN(C(=O)C5CC5)CC4)s3)n2)c1 [Compound A-512] |
| < 100 | Cc1ccnc(Nc2cccc(-c3cnc(N(C)CCCCCC(=O)O)s3)n2)c1 [Compound A-645, 6-(N-methyl-N-{5-[6-(4-methylpyridin-2-ylamino)pyridin-2-yl]thiazol-2-yl}amino)hexanoic acid dihydrochloride] |
| 100 to 1000 | CCOC(=O)N1CCC(N(C)c2ncc(-c3cccc(Nc4cc(C)ccn4)n3)s2)CC1 [Compound A-445] |
| 100 to 1000 | COC(=O)c1cccc(CN(C)c2ncc(-c3cccc(Nc4cc(C)ccn4)n3)s2)c1 [Compound A-581] |
| < 100 | Cc1ccnc(Nc2cccc(-c3cnc(N4CCN(CC(=O)NCCO)C(=O)C4)s3)n2)c1 [Compound A-468, N-(2-hydroxyethyl)-2-(4-{5-[6-(4-methylpyridin-2-ylamino)pyridin-2-yl]thiazol-2-yl}-2-oxopiperazin-1-yl)acetamide] |
| 100 to 1000 | Cc1ccnc(Nc2cccc(-c3cnc(N(CCO)C4CCCCC4)s3)n2)c1 [Compound A-673] |
| 100 to 1000 | Cc1ccnc(Nc2cccc(-c3cnc(N4CCC[C@H]4C(=O)O)s3)n2)c1 [Compound A-527] |
| 100 to 1000 | CNC(=O)C(C)(C)NC(=O)C1CCN(c2ncc(-c3cccc(Nc4cc(C)ccn4)n3)s2)CC1 [Compound A-491] |
| 100 to 1000 | CNC(=O)C(C(C)C)N(C)c1ncc(-c2cccc(Nc3cc(C)ccn3)n2)s1 (centres unmarked) [Compound A-674] |
| < 100 | Cc1ccnc(Nc2cccc(-c3cnc(N(C)CCCCC(=O)O)s3)n2)c1 [Compound A-632, 5-(N-methyl-N-{5-[6-(4-methylpyridin-2-ylamino)pyridin-2-yl]thiazol-2-yl}amino)pentanoic acid] |
| 100 to 1000 | Cc1ccnc(Nc2cccc(-c3cnc(N(C)C(C(=O)N4CCC(O)CC4)C(C)C)s3)n2)c1 (centres unmarked) [Compound A-675] |
| < 100 | Cc1ccnc(Nc2cccc(-c3cnc(N(C)C(C(N)=O)C(C)C)s3)n2)c1 (centres unmarked) [Compound A-668, 3-methyl-2-(N-methyl-N-{5-[6-(4-methylpyridin-2-ylamino)pyridin-2-yl]thiazol-2-yl}amino)butylamide] |
| 100 to 1000 | Cc1ccnc(Nc2cccc(-c3cnc(N(C)CC(=O)O)s3)n2)c1 [Compound A-555] |
| < 100 | Cc1ccnc(Nc2cccc(-c3cnc(N(CCCCC(=O)O)C(C)C)s3)n2)c1 [Compound A-643, 5-(N-isopropyl-N-{5-[6-(4-methylpyridin-2-ylamino)pyridin-2-yl]thiazol-2-yl}amino)pentanoic acid] |
| 100 to 1000 | Cc1ccnc(Nc2cccc(-c3cnc(N4CCC(CC(C)(C)O)CC4)s3)n2)c1 [Compound A-670] |

More lines, now with the values behind:

| Compound | IC50 [nM] |
| --- | --- |
| Cc1cccnc1Nc1cccc(-c2cnc(N3CCC(CC(=O)O)CC3)s2)n1 [Compound A-630] | 100 to 1000 |
| O=C(O)CC1CCN(c2ncc(-c3cccc(Nc4cc(C(F)(F)F)ccn4)n3)s2)CC1 [Compound A-635, (1-{5-[6-(4-trifluoromethylpyridin-2-ylamino)pyridin-2-yl]thiazol-2-yl}piperidin-4-yl)acetic acid dihydrochloride] | < 100 |
| Cc1ccnc(Nc2cccc(-c3cnc(N(C)C4CCC(C(=O)N[C@H]5CC[C@H](O)CC5)CC4)s3)n2)c1 (some centres unmarked) [Compound A-496] | 100 to 1000 |
| CC(C)(C(=O)O)C1CCN(c2ncc(-c3cccc(Nc4cc(CCO)ccn4)n3)s2)CC1 [Compound A-713, 2-[1-(5-{6-[4-(2-hydroxyethyl)pyridin-2-ylamino]pyridin-2-yl}thiazol-2-yl)piperidin-4-yl]-2-methylpropionic acid] | < 100 |
| Cc1ccnc(Nc2cccc(-c3cnc(N(C)C4CCN(C(=O)NC5CCCCC5)CC4)s3)n2)c1 [Compound A-696] | 100 to 1000 |
| Cc1ccnc(Nc2cccc(-c3cnc(N(Cc4ccccc4)C[C@H]4CC[C@H](C(=O)O)CC4)s3)n2)c1 [Compound A-622, trans-4-[(N-benzyl-N-{5-[6-(4-methylpyridin-2-ylamino)pyridin-2-yl]thiazol-2-yl}amino)methyl]cyclohexanecarboxylic acid] | < 100 |
| CN(CCO)c1ncc(-c2cccc(Nc3ccccn3)n2)s1 [Compound A-706] | 100 to 1000 |
| Cc1cc(C)nc(Nc2cccc(-c3cnc(N4CCC(CC(=O)O)CC4)s3)n2)c1 [Compound A-623] | 100 to 1000 |
| Cc1ccnc(Nc2cccc(-c3cnc(N(C)Cc4ccc(OCc5ccccc5)cc4)s3)n2)c1 [Compound A-462] | 100 to 1000 |
| CN(c1ncc(-c2cccc(Nc3cc(C(F)(F)F)ccn3)n2)s1)C(C)(C)c1ccc(C(=O)O)cc1 [Compound A-654, 4-[1-methyl-1-(N-methyl-N-{5-[6-(4-trifluoromethylpyridin-2-ylamino)pyridin-2-yl]thiazol-2-yl}amino)ethyl]benzoic acid] | < 100 |
| Cc1ccnc(Nc2cccc(-c3cnc(N(C)C4CCC(C(=O)N5CCC(O)CC5)CC4)s3)n2)c1 (centres unmarked) [Compound A-495] | 100 to 1000 |
| Cc1ccnc(Nc2cccc(-c3cnc(N4CCC(C5=NC(C)(C)CO5)CC4)s3)n2)c1 [Compound A-456] | 100 to 1000 |
| Cc1ccnc(Nc2cccc(-c3cnc(N4CCC[C@@H](c5nnn[nH]5)C4)s3)n2)c1 [Compound A-590, N-(4-methylpyridin-2-yl)-N-(6-{2-[(R)-3-(1H-tetrazol-5-yl)piperidin-1-yl]thiazol-5-yl}pyridin-2-yl)amine] | < 100 |
| Cc1ccnc(Nc2cccc(-c3cnc(N4CCC(C(=O)N5CCOCC5)CC4)s3)n2)c1 [Compound A-454] | 100 to 1000 |
| CC(C)(O)c1ccnc(Nc2cccc(-c3cnc(N4CCC(CC(=O)O)CC4)s3)n2)c1 [Compound A-717, [1-(5-{6-[4-(1-hydroxy-1-methylethyl)pyridin-2-ylamino]pyridin-2-yl}thiazol-2-yl)piperidin-4-yl]acetic acid dihydrochloride] | < 100 |
| CC(C)c1ccnc(Nc2cccc(-c3cnc(N4CCC(CC(=O)O)CC4)s3)n2)c1 [Compound A-711, (1-{5-[6-(4-isopropylpyridin-2-ylamino)pyridin-2-yl]thiazol-2-yl}piperidin-4-yl)acetic acid dihydrochloride] | < 100 |
| Cc1ccnc(Nc2cccc(-c3cnc(N(Cc4ccccc4)[C@H]4CC[C@@H](CC(=O)O)CC4)s3)n2)c1 [Compound A-625] | 100 to 1000 |
| O=C(O)CCC1CCN(c2ncc(-c3cccc(Nc4ccccn4)n3)s2)CC1 [Compound A-682] | 100 to 1000 |
| O=C(O)C(F)C1CCN(c2ncc(-c3cccc(Nc4cnccn4)n3)s2)CC1 (centres unmarked) [Compound A-715, fluoro-(1-{5-[6-(pyrazin-2-ylamino)pyridin-2-yl]thiazol-2-yl}piperidin-4-yl)acetic acid dihydrochloride] | < 100 |
| O=C(O)CC1CC2CCC(C1)N2c1ncc(-c2cccc(Nc3cc(C(F)(F)F)ccn3)n2)s1 (centres unmarked) [Compound A-648, (8-{5-[6-(4-trifluoromethylpyridin-2-ylamino)pyridin-2-yl]thiazol-2-yl}-8-azabicyclo[3.2.1]oct-3-yl)acetic acid] | < 100 |

same assay, conditions: Tables 2-x, thiophene compounds B; read-out: sykHTRK ave IC50

| IC50 [nM] | Compound |
| --- | --- |
| 100 to 1000 | Cc1ccnc(Nc2cccc(-c3ccc(C(=O)N4CCC(CC(=O)O)CC4)s3)n2)c1 [Compound B-113] |
| 100 to 1000 | Cc1ccnc(Nc2cccc(-c3ccc(C(=O)N[C@H](C(=O)O)C(C)C)s3)n2)c1 [Compound B-117] |
| 100 to 1000 | Cc1ccnc(Nc2cccc(-c3ccc(CNC[C@H]4CC[C@H](C(=O)O)CC4)s3)n2)c1 [Compound B-118] |

Further lines, the compound ahead of its results:

| Compound | IC50 [nM] |
| --- | --- |
| Cc1ccnc(Nc2cccc(-c3ccc(C(C)OCc4ccc(C(=O)O)cc4)s3)n2)c1 (centres unmarked) [Compound B-108] | 100 to 1000 |
| Cc1ccnc(Nc2cccc(-c3ccc(CNCc4ccc(C(=O)O)cc4)s3)n2)c1 [Compound B-116, 4-[({5-[6-(4-methylpyridin-2-ylamino)pyridin-2-yl]thiophen-2-ylmethyl}amino)methyl]benzoic acid] | < 100 |
| Cc1ccnc(Nc2cccc(-c3ccc(CN(C)C(=O)c4ccc(C(=O)O)cc4)s3)n2)c1 [Compound B-125] | 100 to 1000 |
